Assay results from ChEMBL document CHEMBL1122819, “Quinazoline antifolates inhibiting thymidylate synthase: variation of the N10 substituent” (J Med Chem, 1985).

Each compound was assayed on L1210 (assay: (§1) Growth inhibition was evaluated for L1210 cells in culture). Conditions: not given.
Type: functional, Mus musculus

Q: `N#CCCCN(Cc1ccc2nc(N)nc(O)c2c1)c1ccc(C(=O)NC(CCC(=O)O)C(=O)O)cc1` (stereo not given) was tested. Which Inhibition did it give?
A: 10%

What follows are compounds tested on L1210 (assay: as §1). Conditions: Mus musculus, read-out: ID50 (the source's name).
Type: functional

Q: `Nc1nc(O)c2cc(CN(CC(=O)O)c3ccc(C(=O)NC(CCC(=O)O)C(=O)O)cc3)ccc2n1` (stereo not given) was tested. Which IC50 did it give?
A: 27 µM

Q: For `Nc1nc(O)c2cc(CN(Cc3cccc(F)c3)c3ccc(C(=O)NC(CCC(=O)O)C(=O)O)cc3)ccc2n1` (stereo not given), which IC50 is on record?
A: > 200 µM

Q: Which IC50 does the source give for `Nc1nc(O)c2cc(CN(CC(=O)c3ccccc3)c3ccc(C(=O)NC(CCC(=O)O)C(=O)O)cc3)ccc2n1` (stereo not given) here?
A: 100 µM

Q: Which IC50 does the source give for `Nc1nc(O)c2cc(CN(Cc3cnc(O)nc3O)c3ccc(C(=O)NC(CCC(=O)O)C(=O)O)cc3)ccc2n1` (stereo not given) here?
A: 5 µM

Q: How did the IC50 turn out when `N#CCCCN(Cc1ccc2nc(N)nc(O)c2c1)c1ccc(C(=O)NC(CCC(=O)O)C(=O)O)cc1` (stereo not given) was run?
A: > 300 µM

Q: `Nc1nc(O)c2cc(CN(CC3CC3)c3ccc(C(=O)NC(CCC(=O)O)C(=O)O)cc3)ccc2n1` (stereo not given) was tested. Which IC50 did it give?
A: > 100 µM

Q: `CC(C)N(Cc1ccc2nc(N)nc(O)c2c1)c1ccc(C(=O)NC(CCC(=O)O)C(=O)O)cc1` (stereo not given) was tested. Which IC50 did it give?
A: 400 µM

Q: Which IC50 does the source give for `Nc1nc(O)c2cc(CN(CCCO)c3ccc(C(=O)NC(CCC(=O)O)C(=O)O)cc3)ccc2n1` (stereo not given) here?
A: 54 µM

Q: Which IC50 does the source give for `Nc1nc(O)c2cc(CN(CCF)c3ccc(C(=O)NC(CCC(=O)O)C(=O)O)cc3)ccc2n1` (stereo not given) here?
A: 16 µM

Q: For `N#CCN(Cc1ccc2nc(N)nc(O)c2c1)c1ccc(C(=O)NC(CCC(=O)O)C(=O)O)cc1` (stereo not given), which IC50 is on record?
A: 5 µM

Q: Which IC50 does the source give for `NC(=O)CN(Cc1ccc2nc(N)nc(O)c2c1)c1ccc(C(=O)NC(CCC(=O)O)C(=O)O)cc1` (stereo not given) here?
A: 87 µM

Q: How did the IC50 turn out when `Nc1nc(O)c2cc(CN(CCC(=O)O)c3ccc(C(=O)NC(CCC(=O)O)C(=O)O)cc3)ccc2n1` (stereo not given) was run?
A: > 270 µM

Q: How did the IC50 turn out when `C#CCN(Cc1ccc2[nH]c(N)nc(=O)c2c1)c1ccc(C(=O)NC(CCC(=O)O)C(=O)O)cc1` (stereo not given) was run?
A: 5 µM

Q: How did the IC50 turn out when `Nc1nc(O)c2cc(CNc3ccc(C(=O)NC(CCC(=O)O)C(=O)O)cc3)ccc2n1` (stereo not given) [DIDEAZAFOLATE] was run?
A: 5 µM
